Experimental data as given in patent US20250144067A1, “PERSONALIZED STARVATION THERAPY FOR CANCER” (Faeth Therapeutics, Inc., priority 2021, published 2025).
Counter-ions that a name gives are not always drawn. Like-named read-outs stand apart in the source and are kept apart here.

Key:
[1] = system: NCI-H292 lung cancer cells; assay: FDA drug screening, complete media vs cholesterol-free media without statin (TABLE 1); type: cell-based, human
[2] = system: NCI-H292 lung cancer cells; assay: FDA drug screening, complete media vs cholesterol-free media with simvastatin (TABLE 2); type: cell-based, human
[3] = Complete minus Cholesterol-free, greater than 0 enhanced anti-cancer activity, about 0 neutral, below 0 antagonists
[4] = NCI-H292 cells in cholesterol-free media without statin
[5] = NCI-H292 cells in complete media
[6] = NCI-H292 cells, FDA drug library screen, cholesterol-free media with simvastatin 0.04 μM
[7] = NCI-H292 cells, FDA drug library screen, complete media
[8] = complete media minus cholesterol-free media + simvastatin, >0 enhanced anti-cancer activity, about 0 neutral, <0 antagonist
[9] = Complete minus Cholesterol-free, >0 enhanced anti-cancer activity, about 0 neutral, <0 antagonist
[10] = NCI-H292 cells, cholesterol-free media without statin
[11] = NCI-H292 cells, cholesterol-free media without statin, FDA drug library screen
[12] = NCI-H292 cells, complete media, FDA drug library screen
[13] = complete media vs cholesterol-free media + simvastatin (0.04 μM), >0 enhanced anti-cancer activity, about 0 neutral, <0 antagonist
[14] = NCI-H292 cells, drug in cholesterol-free media with simvastatin 0.04 μM
[15] = NCI-H292 cells, drug in complete media
[16] = complete vs cholesterol-free media, >0 enhanced anti-cancer activity, about 0 neutral, <0 antagonist
[17] = NCI-H292 cells, FDA library drug in cholesterol-free media with simvastatin 0.04 μM
[18] = NCI-H292 cells, FDA library drug in complete media
[19] = NCI-H292 cells, cholesterol-free media with simvastatin 0.04 μM, FDA drug library screen (TABLE 2)
[20] = NCI-H292 cells, complete media, FDA drug library screen (TABLE 2)
[21] = Complete minus Cholesterol-free, greater than 0 enhanced anti-cancer activity, about 0 neutral, below 0 antagonist
[22] = NCI-H292 cells, FDA drug library screen, cholesterol-free media without statin
[23] = NCI-H292 cells, cholesterol-free media with simvastatin 0.04 μM, cell growth value in FDA drug screen
[24] = NCI-H292 cells, complete media, cell growth value in FDA drug screen
[25] = complete media minus cholesterol-free media + simvastatin (0.04 μM), >0 enhanced anti-cancer activity, about 0 neutral, <0 antagonist

N#C/C(=C1/SC[C@@H](c2ccc(Cl)cc2Cl)S1)n1ccnc1 [Luliconazole]
Difference [1, 3]: −0.58
Cholesterol-free [1, 4]: 1.532
Complete [1, 5]: 0.9562
Cholesterol-free media + simvastatin (0.04 μM) [2, 6]: 0.3531
Complete Media [2, 7]: 0.8464
Difference [2, 8]: 0.49

Carbetapentane (citrate)
Difference [1, 9]: −0.21
Cholesterol-free [1, 10]: 1.181
Complete ([1]; NCI-H292 cells, complete media): 0.9736
Cholesterol-free media + simvastatin (0.04 μM) [2, 6]: 0.8092
Complete Media [2, 7]: 1.195
Difference [2, 8]: 0.39

Nc1nc(Cl)nc2c1ncn2[C@H]1C[C@H](O)[C@@H](CO)O1 [Cladribine]
Difference [1, 9]: 0.07
Cholesterol-free [1, 11]: −0.008506
Complete [1, 12]: 0.0649
Cholesterol-free media + simvastatin (0.04 μM) [2, 6]: 0.1545
Complete Media [2, 7]: 0.02741
Difference [2, 13]: −0.13

Edoxaban (tosylate monohydrate)
Cholesterol-free [1, 11]: 0.765
Complete [1, 12]: 0.9385
Difference ([1]; complete vs cholesterol-free media, […]): 0.17
Cholesterol-free media + simvastatin (0.04 μM) [2, 14]: 1.271
Complete Media [2, 15]: 1.053
Difference ([2]; complete media vs cholesterol-free media + simvastatin (0.04 μM), […]): −0.22

CC1(C)S[C@@H]2[C@H](NC(=O)[C@H](N)c3ccc(O)cc3)C(=O)N2[C@H]1C(=O)O [Amoxicillin]
Cholesterol-free [1, 11]: 0.9555
Complete [1, 12]: 1.159
Difference [1, 16]: 0.20
Cholesterol-free media + simvastatin (0.04 μM) [2, 6]: 0.9948
Complete Media [2, 7]: 1.386
Difference [2, 8]: 0.39

CNCCCC1c2ccccc2C=Cc2ccccc21 [Protriptyline (hydrochloride)]
Difference [1, 9]: −0.19
Cholesterol-free [1, 10]: 1.347
Cholesterol-free media + simvastatin (0.04 μM) [2, 17]: 1.142
Complete Media [2, 18]: 0.7923
Difference [2, 13]: −0.35

CC(C)c1cccc(C(C)C)c1O [Propofol]
Cholesterol-free [1]: 0.9745
Complete [1]: 0.7898
Difference [1]: −0.18
Cholesterol-free media + simvastatin (0.04 μM) [2]: 1.559
Complete Media [2]: 1.224
Difference [2]: −0.33

COc1cc(S(=O)(=O)[O-])ccc1O.[K+] [Sulfogaiacol]
Difference ([1]; Complete minus Cholesterol-free, […]): −0.01
Cholesterol-free [1, 11]: 0.8896
Complete [1, 12]: 0.8811
Cholesterol-free media + simvastatin (0.04 μM) [2, 19]: 0.9781
Complete Media [2, 20]: 0.9488
Difference ([2]; complete media minus cholesterol-free media + simvastatin (0.04 μM), […]): −0.03

CC1(C)S[C@@H]2[C@H](NC(=O)Cc3ccccc3)C(=O)N2[C@H]1C(=O)O.CC1(C)S[C@@H]2[C@H](NC(=O)Cc3ccccc3)C(=O)N2[C@H]1C(=O)O.O.O.O.O.c1ccc(CNCCNCc2ccccc2)cc1 [Penicillin G benzathine (tetrahydrate)]
Difference [1, 3]: −0.54
Cholesterol-free [1, 4]: 1.6
Complete [1, 5]: 1.064
Cholesterol-free media + simvastatin (0.04 μM) [2, 14]: 1.321
Complete Media [2, 15]: 1.126
Difference [2, 13]: −0.20

CCc1cc(/C(C)=N/OCc2ccc(C3CCCCC3)c(C(F)(F)F)c2)ccc1CN1CC(C(=O)O)C1 [Siponimod]
Difference [1, 9]: −0.01
Cholesterol-free [1, 11]: 0.9324
Complete [1, 12]: 0.9251
Cholesterol-free media + simvastatin (0.04 μM) [2, 17]: 1.121
Complete Media [2, 18]: 0.7701
Difference [2, 13]: −0.35

CC(C)(C)NCC(O)CSc1nc(-c2ccc(C(N)=O)s2)cs1 (centres unmarked) [Arotinolol]
Difference [1, 21]: −0.18
Cholesterol-free [1, 22]: 1.165
Complete [1, 7]: 0.9888
Cholesterol-free media + simvastatin (0.04 μM) [2, 6]: 1.158
Complete Media [2, 7]: 1.017
Difference [2, 13]: −0.14

CCCCNc1cc(C(=O)O)cc(S(N)(=O)=O)c1Oc1ccccc1 [Bumetanide]
Difference [1, 9]: 0.04
Cholesterol-free [1, 11]: 0.6987
Complete [1, 12]: 0.7406
Cholesterol-free media + simvastatin (0.04 μM) [2, 23]: 1.046
Complete Media [2, 24]: 1.138
Difference [2, 8]: 0.09

CCOC(=O)[C@H](CCc1ccccc1)N[C@H]1CS[C@H](c2cccs2)CN(CC(=O)O)C1=O [Temocapril (hydrochloride)]
Difference [1, 9]: 0.00
Cholesterol-free [1, 11]: 0.6068
Complete [1, 12]: 0.6079
Cholesterol-free media + simvastatin (0.04 μM) [2, 19]: 1.423
Complete Media [2, 20]: 1.436
Difference [2, 25]: 0.01

N#Cc1ccc2[nH]cc(CCCCN3CCN(c4ccc5oc(C(N)=O)cc5c4)CC3)c2c1 [Vilazodone]
Cholesterol-free [1, 11]: 0.8843
Complete [1, 12]: 1.054
Difference [1, 16]: 0.17
Cholesterol-free media + simvastatin (0.04 μM) [2, 23]: 0.8049
Complete Media [2, 24]: 0.9107
Difference [2, 8]: 0.11

Cc1cccc(Nc2ccncc2S(=O)(=O)NC(=O)NC(C)C)c1 [Torsemide]
Difference [1, 21]: −0.16
Cholesterol-free [1, 22]: 1.07
Complete [1, 7]: 0.914
Cholesterol-free media + simvastatin (0.04 μM) [2, 19]: 1.055
Complete Media [2, 20]: 0.9909
Difference [2, 25]: −0.06

O=c1[nH]c(=O)n([C@H]2C[C@H](O)[C@@H](CO)O2)cc1/C=C/Br [Brivudine]
Cholesterol-free [1, 10]: 1.108
Complete ([1]; NCI-H292 cells, complete media): 0.7267
Difference ([1]; complete vs cholesterol-free media, greater than 0 enhanced anti-cancer activity, about 0 neutral, below 0 antagonists): −0.38
Cholesterol-free media + simvastatin (0.04 μM) [2, 23]: 1.157
Complete Media [2, 24]: 1.26
Difference [2, 8]: 0.10

O=C(OCCOCCO)c1ccccc1Nc1cccc(C(F)(F)F)c1 [Etofenamate]
Difference [1, 9]: 0.02
Cholesterol-free [1, 11]: 1.014
Complete [1, 12]: 1.036
Cholesterol-free media + simvastatin (0.04 μM) [2, 17]: 2.387
Complete Media [2, 18]: 1.527
Difference [2, 13]: −0.86

Cc1cccc(C(C)c2cnc[nH]2)c1C (centres unmarked) [Medetomidine]
Difference [1, 21]: −0.10
Cholesterol-free [1, 22]: 1.034
Complete [1, 7]: 0.9342
Cholesterol-free media + simvastatin (0.04 μM) [2, 17]: 1.094
Complete Media [2, 18]: 0.8138
Difference [2, 13]: −0.28

Oc1c(Br)cc(Br)c2cccnc12 [Broxyquinoline]
Cholesterol-free [1, 11]: 1.044
Complete [1, 12]: 1.24
Difference [1, 16]: 0.20
Cholesterol-free media + simvastatin (0.04 μM) [2, 6]: 1.072
Complete Media [2, 7]: 1.219
Difference [2, 8]: 0.15

O=C1[C@@H]2[C@H]3CC[C@H](C3)[C@@H]2C(=O)N1CCCCN1CCN(c2ncccn2)CC1 [Tandospirone]
Difference [1, 9]: −0.26
Cholesterol-free [1, 10]: 1.451
Complete ([1]; NCI-H292 cells, complete media): 1.192
Cholesterol-free media + simvastatin (0.04 μM) [2, 19]: 0.8591
Complete Media [2, 20]: 0.8479
Difference [2, 25]: −0.01

C[C@@H]1C[C@H]2[C@@H]3CCC4=CC(=O)C=C[C@]4(C)[C@@]3(F)[C@@H](O)C[C@]2(C)[C@@]1(O)C(=O)COP(=O)([O-])[O-].[Na+].[Na+] [Dexamethasone phosphate disodium]
Difference [1, 9]: −0.02
Cholesterol-free [1, 11]: 0.7426
Complete [1, 12]: 0.7227
Cholesterol-free media + simvastatin (0.04 μM) [2, 6]: 0.6625
Complete Media [2, 7]: 1.229
Difference [2, 8]: 0.57
